Reference: US20260317319A1, “NOVEL ERGOLINES AND METHODS OF TREATING MOOD DISORDERS” (Gilgamesh Pharma Inc., priority 2023, published 2026)
Where two headings read alike, the source gives them in different places.

Key:
in vitro [1] = format: in vitro ADME, human; conditions: HLM 0.50 mg/mL, NADPH 1 mM, 1 μM compound, pH 7.4, 37° C., 60 min; for microsomal CLint / half-life: human, microsomes; for microsomal CLint: read-out: Intrinsic clearance (Clint); for half-life: read-out: half-life (t1/2)
in vitro [2] = format: in vitro ADME, mouse; conditions: MLM (male CD-1) 0.50 mg/mL, NADPH 1 mM, 1 μM compound, pH 7.4, 37° C., 60 min; for microsomal CLint / half-life: mouse, microsomes; for microsomal CLint: read-out: Intrinsic clearance (Clint); for half-life: read-out: half-life (t1/2)
Description: MLM Stability Pooled MLM from male CD-1 mice (BIOIVT M00501) were used.

in vitro [3] = format: in vitro ADME, rat; conditions: RLM (male Sprague-Dawley) 0.50 mg/mL, NADPH 1 mM, 1 μM compound, pH 7.4, 37° C., 60 min; for microsomal CLint / half-life: rat, microsomes; for microsomal CLint: read-out: Intrinsic clearance (Clint); for half-life: read-out: half-life (t1/2)
Description: RLM Stability Pooled RLM from male Sprague-Dawley rats (Xenotech R1000) were used.

5-HT2A receptor = 5-HT2A receptor (Homo sapiens, UniProt P28223); test: biochemical; format: binding; design: expressed in transfected cells; host or cells: HEK293, stably transfected; conditions: [3H]ketanserin 1 nM; HEK293 stable cell line; 1 h, 25 °C
Procedure: Affinity of the test compounds for the 5-HT2A receptor was determined in radioligand binding experiments with [^3H]ketanserin by WuXi AppTec (Hong Kong) Limited, using methods adapted from the literature and under conditions described in Table 1.

Sequence of 5-HT2A receptor (P28223 whole entry): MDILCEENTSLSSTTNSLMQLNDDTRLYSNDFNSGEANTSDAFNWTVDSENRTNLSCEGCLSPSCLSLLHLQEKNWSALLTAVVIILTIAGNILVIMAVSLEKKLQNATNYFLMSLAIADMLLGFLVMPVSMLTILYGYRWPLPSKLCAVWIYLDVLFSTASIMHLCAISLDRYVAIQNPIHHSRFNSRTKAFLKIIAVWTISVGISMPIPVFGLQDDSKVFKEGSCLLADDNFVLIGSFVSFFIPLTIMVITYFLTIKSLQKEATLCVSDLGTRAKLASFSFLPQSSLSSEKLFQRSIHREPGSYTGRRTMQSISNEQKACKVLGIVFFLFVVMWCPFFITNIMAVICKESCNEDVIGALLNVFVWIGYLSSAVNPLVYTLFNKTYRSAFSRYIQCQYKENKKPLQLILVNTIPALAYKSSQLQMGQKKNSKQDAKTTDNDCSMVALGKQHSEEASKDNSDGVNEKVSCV

For `[2H]C([2H])([2H])Oc1cccc(CN2C[C@H](C(=O)N(CC)CC)C=C3c4cccc5[nH]cc(c45)C[C@H]32)c1` [Compound 56, (6aR,9R)—N,N-diethyl-7-(3-(methoxy-d3)benzyl)-4,6,6,7,8,9-hexahydroindolo[4,3-fg]quinoline-9-carboxamide], the “Intrinsic clearance (Clint)” value (in vitro [1]) was 113.3 µL/min/mg, the “half-life (t1/2)” value (in vitro [1]) was 12.2 min and the “Intrinsic clearance (Clint)” value (in vitro [2]) was 223.3 µL/min/mg. For the same molecule, the “half-life (t1/2)” value (in vitro [2]) was 6.2 min, the “Intrinsic clearance (Clint)” value (in vitro [3]) was 224.5 µL/min/mg and the “half-life (t1/2)” value (in vitro [3]) was 6.2 min.
`CCN(CC)C(=O)[C@H]1C=C2c3cccc4[nH]cc(c34)C[C@H]2N(Cc2ccc3ccccc3c2)C1` [Compound 100a, (6aR,9S)—N,N-diethyl-7-(naphthalen-2-ylmethyl)-4,6,6a,7,8,9-hexahydroindolo[4,3-fg]quinoline-9-carboxamide] showed a Ki (5-HT2A receptor) of over 1.23 µM.
Work on `CCN(CC)C(=O)[C@@H]1C=C2c3cccc4[nH]cc(c34)C[C@H]2N(Cc2cnco2)C1` [Compound 75, (6aR,9R)—N,N-diethyl-7-(oxazol-5-ylmethyl)-4,6,6a,7,8,9-hexahydroindolo[4,3-fg]quinoline-9-carboxamide] yielded a microsomal CLint (in vitro [1]) of 35 µL/min/mg, a half-life (in vitro [1]) of 39.6 min and a Ki (5-HT2A receptor) of 0.0128 µM. The microsomal CLint (in vitro [2]) was 83.1 µL/min/mg, the half-life (in vitro [2]) was 16.7 min and the microsomal CLint (in vitro [3]) was 56.3 µL/min/mg. For the same molecule, the half-life (in vitro [3]) was 24.6 min.
`[2H]C(c1cccc(OC)c1)N1C[C@@H](C(=O)N(CC)CC)C=C2c3cccc4[nH]cc(c34)C[C@H]21` (stereo partly drawn) [Compound 96a, (6aR,9S)—N,N-diethyl-7-((3-methoxyphenyl)methyl-d)-4,6,6a,7,8,9-hexahydroindolo[4,3-fg]quinoline-9-carboxamide] gave a Ki (5-HT2A receptor) of 1 µM.
`CCN(C)C(=O)[C@H]1C=C2c3cccc4[nH]cc(c34)C[C@H]2N(CC2CCCC2)C1` [Compound 103a, (6aR,9S)-7-(cyclopentylmethyl)-N-ethyl-N-methyl-4,6,6a,7,8,9-hexahydroindolo[4,3-fg]quinoline-9-carboxamide] gave a Ki (5-HT2A receptor) of 0.511 µM.
`O=C([C@H]1C=C2c3cccc4[nH]cc(c34)C[C@H]2N(Cc2ccccc2)C1)N1CCCC1` [Compound 84a, ((6aR,9S)-7-benzyl-4,6,6a,7,8,9-hexahydroindolo[4,3-fg]quinolin-9-yl)(pyrrolidin-1-yl)methanone] gave a microsomal CLint (in vitro [1]) of 154 µL/min/mg, a half-life (in vitro [1]) of 9 min and a Ki (5-HT2A receptor) of over 1.23 µM. The microsomal CLint (in vitro [2]) was 784 µL/min/mg, the half-life (in vitro [2]) was 1.8 min and the microsomal CLint (in vitro [3]) was 257 µL/min/mg. The half-life (in vitro [3]) was 5.4 min.
In the case of `CCN(C)C(=O)[C@H]1C=C2c3cccc4[nH]cc(c34)C[C@H]2N(Cc2cccc(OC)c2)C1` [Compound 92a, (6aR,9S)—N-ethyl-7-(3-methoxybenzyl)-N-methyl-4,6,6a,7,8,9-hexahydroindolo[4,3-fg]quinoline-9-carboxamide], the Ki (5-HT2A receptor) is reported as over 1.23 µM.
Work on `[2H]C(c1cccc(OC)c1)N1C[C@H](C(=O)N(CC)CC)C=C2c3cccc4[nH]cc(c34)C[C@H]21` (stereo partly drawn) [Compound 96, (6aR,9R)—N,N-diethyl-7-((3-methoxyphenyl)methyl-d)-4,6,6a,7,8,9-hexahydroindolo[4,3-fg]quinoline-9-carboxamide] yielded a Ki (5-HT2A receptor) of 0.00399 µM.
In the case of `CN(C)C(=O)[C@H]1C=C2c3cccc4[nH]cc(c34)C[C@H]2N(Cc2ccccc2)C1` [Compound 102a, (6aR,9S)-7-benzyl-N,N-dimethyl-4,6,6a,7,8,9-hexahydroindolo[4,3-fg]quinoline-9-carboxamide], the Ki (5-HT2A receptor) is reported as 0.349 µM.
In the case of `CCCN(CC)C(=O)[C@H]1C=C2c3cccc4[nH]cc(c34)C[C@H]2N(Cc2ccccc2)C1` [Compound 86a, (6aR,9S)-7-benzyl-N-ethyl-N-propyl-4,6,6a,7,8,9-hexahydroindolo[4,3-fg]quinoline-9-carboxamide], the microsomal CLint (in vitro [1]) is reported as 95.2 µL/min/mg, the half-life (in vitro [1]) is reported as 14.6 min and the Ki (5-HT2A receptor) is reported as 0.671 µM. It also gave a microsomal CLint (in vitro [2]) of 1010 µL/min/mg, a half-life (in vitro [2]) of 1.4 min and a microsomal CLint (in vitro [3]) of 330 µL/min/mg. It also gave a half-life (in vitro [3]) of 4.2 min.
For `CCN(C)C(=O)[C@H]1C=C2c3cccc4[nH]cc(c34)C[C@H]2N(Cc2ccccc2)C1` [Compound 85a, (6aR,9S)-7-benzyl-N-ethyl-N-methyl-4,6,6a,7,8,9-hexahydroindolo[4,3-fg]quinoline-9-carboxamide], the microsomal CLint (in vitro [1]) was 156 µL/min/mg, the half-life (in vitro [1]) was 8.9 min and the Ki (5-HT2A receptor) was 0.516 µM. For the same molecule, the microsomal CLint (in vitro [2]) was 848 µL/min/mg, the half-life (in vitro [2]) was 1.6 min and the microsomal CLint (in vitro [3]) was 400 µL/min/mg. It also gave a half-life (in vitro [3]) of 3.5 min.
Work on `CCN(CC)C(=O)[C@H]1C=C2c3cccc4[nH]cc(c34)C[C@H]2N(Cc2ccc(F)c(F)c2)C1` [Compound 54a, (6aR,9S)-7-(3,4-difluorobenzyl)-N,N-diethyl-4,6,6a,7,8,9-hexahydroindolo[4,3-fg]quinoline-9-carboxamide] yielded a Ki (5-HT2A receptor) of 0.289 µM.
With `CCN(CC)C(=O)[C@H]1C=C2c3cccc4[nH]cc(c34)C[C@H]2N(Cc2ccccc2C)C1` [Compound 99a, (6aR,9S)—N,N-diethyl-7-(2-methylbenzyl)-4,6,6a,7,8,9-hexahydroindolo[4,3-fg]quinoline-9-carboxamide] the Ki (5-HT2A receptor) was 0.802 µM.
For `CCCN(CC)C(=O)[C@H]1C=C2c3cccc4[nH]cc(c34)C[C@H]2N(Cc2cccc(OC)c2)C1` [Compound 93a, (6aR,9S)—N-ethyl-7-(3-methoxybenzyl)-N-propyl-4,6,6a,7,8,9-hexahydroindolo[4,3-fg]quinoline-9-carboxamide], the Ki (5-HT2A receptor) was 0.23 µM.
In the case of `COc1cccc(CN2C[C@@H](C(=O)N3CCCC3)C=C3c4cccc5[nH]cc(c45)C[C@H]32)c1` [Compound 91a, ((6aR,9S)-7-(3-methoxybenzyl)-4,6,6a,7,8,9-hexahydroindolo[4,3-fg]quinolin-9-yl)(pyrrolidin-1-yl)methanone], the Ki (5-HT2A receptor) is reported as over 1.23 µM.
In the case of `CCN(CC)C(=O)[C@H]1C=C2c3cccc4[nH]cc(c34)C[C@H]2N(Cc2cccc3ccccc23)C1` [Compound 101a, (6aR,9S)—N,N-diethyl-7-(naphthalen-1-ylmethyl)-4,6,6a,7,8,9-hexahydroindolo[4,3-fg]quinoline-9-carboxamide], the Ki (5-HT2A receptor) is reported as 0.75 µM.
`COc1cccc(CN2C[C@@H](C(=O)N3[C@@H](C)C[C@@H]3C)C=C3c4cccc5[nH]cc(c45)C[C@H]32)c1` [Compound 94a, ((2S,4S)-2,4-dimethylazetidin-1-yl)((6aR,9S)-7-(3-methoxybenzyl)-4,6,6a,7,8,9-hexahydroindolo[4,3-fg]quinolin-9-yl)methanone] showed a Ki (5-HT2A receptor) of 1.21 µM.
Work on `C[C@H]1C[C@H](C)N1C(=O)[C@H]1C=C2c3cccc4[nH]cc(c34)C[C@H]2N(Cc2ccccc2)C1` [Compound 87a, ((6aR,9S)-7-benzyl-4,6,6a,7,8,9-hexahydroindolo[4,3-fg]quinolin-9-yl)((2S,4S)-2,4-dimethylazetidin-1-yl)methanone] yielded a Ki (5-HT2A receptor) of 1.14 µM.
In the case of `CCN(CC)C(=O)[C@H]1C=C2c3cccc4[nH]cc(c34)C[C@H]2N(Cc2cccc(C)c2)C1` [Compound 98a, (6aR,9S)—N,N-diethyl-7-(3-methylbenzyl)-4,6,6a,7,8,9-hexahydroindolo[4,3-fg]quinoline-9-carboxamide], the Ki (5-HT2A receptor) is reported as 0.91 µM.
For `CN1C[C@H](C(=O)N2CCCC2)C=C2c3cccc4[nH]cc(c34)C[C@H]21` [Int22], the “Intrinsic clearance (Clint)” value (in vitro [1]) was under 9.6 µL/min/mg and the “half-life (t1/2)” value (in vitro [1]) was over 145 min.
`[2H]C([2H])(c1cccc(OC)c1)N1C[C@@H](C(=O)N(CC)CC)C=C2c3cccc4[nH]cc(c34)C[C@H]21` [Compound 68a, (6aR,9S)—N,N-diethyl-7-((3-methoxyphenyl)methyl-d2)-4,6,6a,7,8,9-hexahydroindolo[4,3-fg]quinoline-9-carboxamide] gave a Ki (5-HT2A receptor) of over 1.23 µM.
With `CCN(CC)C(=O)[C@H]1C=C2c3cccc4[nH]cc(c34)C[C@H]2N(Cc2cccc(F)c2)C1` [Compound 52a, (6aR,9S)—N,N-diethyl-7-(3-fluorobenzyl)-4,6,6a,7,8,9-hexahydroindolo[4,3-fg]quinoline-9-carboxamide] the Ki (5-HT2A receptor) was over 1.23 µM.
`CC[C@@H](C)NC(=O)[C@H]1C=C2c3cccc4[nH]cc(c34)C[C@H]2N(Cc2ccccc2)C1` [Compound 95a, (6aR,9S)-7-benzyl-N—((R)-sec-butyl)-4,6,6a,7,8,9-hexahydroindolo[4,3-fg]quinoline-9-carboxamide] showed a Ki (5-HT2A receptor) of 0.123 µM.
With `COc1cccc(CN2C[C@H](C(=O)N3CCCC3)C=C3c4cccc5[nH]cc(c45)C[C@H]32)c1` [Compound 91, ((6aR,9R)-7-(3-methoxybenzyl)-4,6,6a,7,8,9-hexahydroindolo[4,3-fg]quinolin-9-yl)(pyrrolidin-1-yl)methanone] the Ki (5-HT2A receptor) was 0.128 µM.
In the case of `CC[C@@H](C)NC(=O)[C@H]1C=C2c3cccc4[nH]cc(c34)C[C@H]2N(Cc2ccccc2)C1` [Compound 88a, (6aR,9S)-7-benzyl-N—((R)-sec-butyl)-4,6,6a,7,8,9-hexahydroindolo[4,3-fg]quinoline-9-carboxamide], the microsomal CLint (in vitro [1]) is reported as 302 µL/min/mg, the half-life (in vitro [1]) is reported as 4.6 min and the Ki (5-HT2A receptor) is reported as 0.191 µM. It also gave a microsomal CLint (in vitro [2]) of 837 µL/min/mg, a half-life (in vitro [2]) of 1.7 min and a microsomal CLint (in vitro [3]) of 830 µL/min/mg. The half-life (in vitro [3]) was 1.7 min.
